This is an account of results in US20240294499A1, “TARGETED PROTEIN DEGRADATION USING BIFUNCTIONAL COMPOUNDS THAT BIND UBIQUITIN LIGASE AND TARGET MCL-1 PROTEIN” (Captor Therapeutics S.A., priority 2021, published 2024).

For one experiment, the system named is MV-4-11 cells. Kind of experiment: Cell viability assay (CellTiter-Glo), MV-4-11. Format: cell-based. To be noted: Homo sapiens, MV4-11, 24 hours incubation, 1% FBS, read-out: Average pIC50 by molecule MV-4-11 (converted). Summed up:
(§1)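 Luminescent ATP readout (CellTiter-Glo) at 24 hours measured viability, expressed relative to DMSO-treated wells. Compound was added directly to the medium as a 9–12-point threefold series starting at 30 uM, at 0.5% final DMSO. The medium contained FBS reduced to 1%.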
A general note: ATP-based viability assays read luminescence as a measure of living cells.

Experiment [1] addresses T1, [MCL-1]-[compound of formula (I)]-[CRBN/DDB1] complex (Homo sapiens, UniProt Q07820+Q96SW2). Kind of experiment: AlphaLISA dose response ternary complex formation assay. Format: binding. The conditions noted are these: read-out: AlphaLISA dose response Average pEC50 by molecule (converted). Summed up: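 EC50 comes from dose–response of AlphaLISA luminescence (excitation 680, emission 615 nm), normalised between DMSO background and an internal positive control, with concentrations past the hook point dropped. Ternary complex formed by mixing bead-bound biotin-hMCL-1 and His-CRBN/DDB1 (protein solutions 40 and 200 nM) with compound in 2% DMSO, 30 min, 25 °C.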
For orientation: Bead proximity is the source of the signal in Alpha formats.

Experiment [2] concerns the target T2, MCL-1 protein (Homo sapiens, UniProt Q07820). In words: OPM-2 cells: MCL-1 protein degradation, Simple Western. Format: cell-based. Further details: endogenous in cells; host or cells: OPM-2. To be noted: OPM-2 cell line, 6 h treatment, 100 nM compound, vs DMSO. The source says: The effect of various compounds of the invention and the reference compounds on MCL-1protein degradation in the OPM-2 cell line was investigated, using the degradation assay protocol below.
(§2) OPM-2 cells were maintained in RPMI-1640 medium, supplemented with penicillin/streptomycin and 10% Fetal Bovine Serum (FBS). During the treatment, FBS concentration was reduced to 1%.
(§3) Compound stocks were pre-diluted in DMSO and added directly to the cells growth medium (final DMSO concentration: 0.5%).
(§4) OPM-2 cells were collected, centrifuged (250 rcf, 5 min), resuspended in a growth medium containing 1% FBS and counted. The cell suspension was then adjusted to 1×10^6 cell/ml using a growth medium containing 1% FBS. Afterwards, 0.5×10^6 cells were seeded on 24-well plates in 0.5 mL of medium per well. Immediately after seeding cells, compounds in appropriate concentrations were added to the cell culture medium.
Following the treatment with the compounds, cells were collected from the plates and suspended in a lysis buffer (2% SDS, 50 mM Tris, pH 8.0, 100 U/ml Pierce Universal Nuclease for Cell Lysis, cOmplete EDTA-free Protease Inhibitor Cocktail) and incubated on ice for 45 min.
The following steps, including sample loading, protein separation, immunoprobing or labelling, washes and detection analysis was performed using Jess from ProteinSimple, an automatic system for analyzing protein levels in cell lysates (12-230 kDa Jess or Wes separation module 8×25 capillaries, protein normalization assay, no. SM-PN01-1). The Protein of Interest was detected using MCL-1 (D35A5) Rabbit monoclonal antibody (Cell Signaling, #5453, LOT: 4). Antibody was diluted in a ratio of 1:100 in Antibody diluent.
[%] of protein reduction is calculated in comparison to the cells treated with DMSO, which stand for 0%.
The results for the 6 h treatment with 100 nM compounds are shown in Table 9, using the following labels: • <20% for 0-19% of MCL-1 protein reduction, • ≥20% for 20-39% of MCL-1 protein reduction, • ≥40% for 40-100% of MCL-1 protein reduction.

Experiment [3] addresses T2, MCL-1 protein. Kind of experiment: OPM-2 cells: MCL-1 protein degradation, Western blot. Format: cell-based. Further details: endogenous in cells; host or cells: OPM-2. To be noted: OPM-2 cell line, 6 h treatment, 100 nM compound, vs DMSO.
Text: The effect of various compounds of the invention and the reference compounds on MCL-1 protein degradation in the OPM-2 cell line was investigated, using the degradation assay protocol below.
as §2, §3, §4
Following the treatment with the compounds, cells were collected from the plates and suspended in a lysis buffer (2% SDS, 50 mM Tris, pH 8.0, 100 U/ml Pierce Universal Nuclease for Cell Lysis, complete EDTA-free Protease Inhibitor Cocktail) and incubated on ice for 45 min. The amount of protein was determined via BCA assay, and the equal quantity of each sample was loaded on the precast gel for the protein separation. Following the electrophoresis and transfer to the membrane, the membrane was stained with Ponceau (0.1% (w/v) Ponceau in 5% acetic acid). After total protein detection, the stain was washed out using TBST. After the antibody staining for MCL-1 and α-tubulin, the membranes were washed and signals developed.
Densitometric values for MCL-1 were normalized to total protein level (the Ponceau Staining). [%] of protein reduction is calculated in comparison to the cells treated with DMSO, which stand for 0%.
The results for the 6 h treatment with 100 nM compounds are shown in Table 9, using the following labels: • <30% for 0-29% of MCL-1 protein reduction, • ≥30% for 30-49% of MCL-1 protein reduction, • ≥50% for 50-100% of MCL-1 protein reduction.

For a further experiment, the system named is OPM-2 cells. Kind of experiment: Cell viability assay (CellTiter-Glo), OPM-2. Format: cell-based. The conditions noted are these: Homo sapiens, 24 hours incubation, 1% FBS, read-out: Average pIC50 by molecule OPM-2 (converted). The source says:
The effect of various compounds of the invention on the viability of OPM-2, MV-4-11 and ARH-77 cell lines was investigated, using the CTG protocol described below.
OPM-2 and MV-4-11 cell lines are derived from multiple myeloma and acute myeloid leukaemia, respectively. Both cell lines are described in the literature as MCL-1 dependent lines, as opposed to lymphoblast-like ARH-77 cell line, which is described as independent of MCL-1 (Tron A E et al. Nat Commun. 2018; 9: 5341; Caenepeel S et al. Cancer Discov. 2018 December; 8(12):1582-1597).
Cells (OPM-2, MV-4-11 or ARH-77) were seeded on […] in a growth medium with FBS reduced to 1%. Next, compound stocks were pre-diluted in DMSO and added directly to the cells growth medium (final DMSO concentration: 0.5%). Compound concentrations used in this assay: 1/3 dilutions starting at 30 uM (9 to 12 points).
After 24 hours of incubation, cell viability was evaluated using CellTiter-Glo Luminescent Cell Viability Assay (Promega, cat #G7572). Luminescence signal was measured using a CLARIOstar Plus Multi-Mode Microplate Reader (574-590 nm).
Results were normalized to DMSO control.

The next experiment concerns DMS 114 cells. Kind of experiment: Cell viability assay (CellTiter-Glo), DMS 114. Format: cell-based. To be noted: Homo sapiens, DMS-114, 72 h, 72 hours incubation, 10% FBS, read-out: Average pIC50 by molecule DMS 114 (converted). An excerpt:
The effect of various compounds of the invention on the viability of DMS 114 cell line was investigated, using the CTG protocol described below.
DMS 114 cell line is derived from small-cell lung cancer, which is described in the literature as MCL-1 dependent lines [Yasuda Y et al. Cell Death & Disease 2020; 11: 177].
DMS 114 cells were detached with trypsin and then resuspended in growth medium containing 10% FBS and counted. Cell suspension was then adjusted to 5×10^4 cells/ml using growth medium containing 10% FBS. Afterwards, […] were seeded on 384-well plates (50 μl). Plates were then placed in the incubator overnight until treated. Next day, compounds were added using ECHO 555 liquid handler. Compound concentrations used in this assay: 1/3 dilutions starting at 30 uM (9 to 12 points).
After 72 hours of incubation, cell viability was evaluated using CellTiter-Glo Luminescent Cell Viability Assay (Promega, cat #G7572). Luminescence signal was measured using a CLARIOstar Plus Multi-Mode Microplate Reader (574-590 nm).

For experiment [4], the target named is T1, [MCL-1]-[compound of formula (I)]-[CRBN/DDB1] complex. Kind of experiment: HTRF ternary complex assay. Format: binding. To be noted: ternary complex formation; read-out: HTRF ternary complex Average pEC50 by molecule (converted). Summed up:
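hMcl-1 and CRBN (mix at 48 nM and 105.6 nM) with Streptavidin-Eu cryptate and anti-6×His-d2 in PPI Europium buffer with 2 mM DTT; compounds in dose-response, 0.5% DMSO. Incubated 180 min at 25° C, TR-FRET 665/620 read. Bell-shaped curve fitted by Gaussian; EC50 reported.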
Background: Time-resolved FRET reads energy transfer from a long-lived donor to a nearby acceptor.

In the next experiment the test system is ARH-77 cells. Kind of experiment: Cell viability assay (CellTiter-Glo), ARH-77. Format: cell-based. To be noted: Homo sapiens, ARH-77, 24 hours incubation, 1% FBS, read-out: Average pIC50 by molecule ARH-77 (converted). Summed up:
as §1

T1 sequence (Q07820 whole entry): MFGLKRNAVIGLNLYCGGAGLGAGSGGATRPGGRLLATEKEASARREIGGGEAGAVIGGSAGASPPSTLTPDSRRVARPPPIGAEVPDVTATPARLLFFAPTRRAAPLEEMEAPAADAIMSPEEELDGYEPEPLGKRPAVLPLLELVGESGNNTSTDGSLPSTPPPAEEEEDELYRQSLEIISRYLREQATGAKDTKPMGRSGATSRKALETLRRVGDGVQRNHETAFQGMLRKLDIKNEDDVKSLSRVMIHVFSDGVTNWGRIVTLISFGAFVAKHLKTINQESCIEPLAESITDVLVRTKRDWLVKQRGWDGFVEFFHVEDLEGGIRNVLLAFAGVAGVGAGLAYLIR
T1 sequence (Q96SW2 whole entry): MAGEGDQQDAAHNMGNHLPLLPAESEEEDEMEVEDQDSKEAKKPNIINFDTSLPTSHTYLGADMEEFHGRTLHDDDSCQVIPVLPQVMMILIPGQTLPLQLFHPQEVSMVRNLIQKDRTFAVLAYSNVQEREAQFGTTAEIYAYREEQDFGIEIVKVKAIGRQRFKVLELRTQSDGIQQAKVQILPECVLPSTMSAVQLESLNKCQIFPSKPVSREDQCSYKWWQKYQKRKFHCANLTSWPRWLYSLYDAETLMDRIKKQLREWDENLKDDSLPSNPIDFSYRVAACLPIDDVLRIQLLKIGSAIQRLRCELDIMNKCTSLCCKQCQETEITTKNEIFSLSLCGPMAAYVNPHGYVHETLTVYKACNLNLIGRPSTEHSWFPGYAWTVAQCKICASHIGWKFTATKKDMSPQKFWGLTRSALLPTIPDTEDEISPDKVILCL
T1 sequence (Q16531 whole entry partner): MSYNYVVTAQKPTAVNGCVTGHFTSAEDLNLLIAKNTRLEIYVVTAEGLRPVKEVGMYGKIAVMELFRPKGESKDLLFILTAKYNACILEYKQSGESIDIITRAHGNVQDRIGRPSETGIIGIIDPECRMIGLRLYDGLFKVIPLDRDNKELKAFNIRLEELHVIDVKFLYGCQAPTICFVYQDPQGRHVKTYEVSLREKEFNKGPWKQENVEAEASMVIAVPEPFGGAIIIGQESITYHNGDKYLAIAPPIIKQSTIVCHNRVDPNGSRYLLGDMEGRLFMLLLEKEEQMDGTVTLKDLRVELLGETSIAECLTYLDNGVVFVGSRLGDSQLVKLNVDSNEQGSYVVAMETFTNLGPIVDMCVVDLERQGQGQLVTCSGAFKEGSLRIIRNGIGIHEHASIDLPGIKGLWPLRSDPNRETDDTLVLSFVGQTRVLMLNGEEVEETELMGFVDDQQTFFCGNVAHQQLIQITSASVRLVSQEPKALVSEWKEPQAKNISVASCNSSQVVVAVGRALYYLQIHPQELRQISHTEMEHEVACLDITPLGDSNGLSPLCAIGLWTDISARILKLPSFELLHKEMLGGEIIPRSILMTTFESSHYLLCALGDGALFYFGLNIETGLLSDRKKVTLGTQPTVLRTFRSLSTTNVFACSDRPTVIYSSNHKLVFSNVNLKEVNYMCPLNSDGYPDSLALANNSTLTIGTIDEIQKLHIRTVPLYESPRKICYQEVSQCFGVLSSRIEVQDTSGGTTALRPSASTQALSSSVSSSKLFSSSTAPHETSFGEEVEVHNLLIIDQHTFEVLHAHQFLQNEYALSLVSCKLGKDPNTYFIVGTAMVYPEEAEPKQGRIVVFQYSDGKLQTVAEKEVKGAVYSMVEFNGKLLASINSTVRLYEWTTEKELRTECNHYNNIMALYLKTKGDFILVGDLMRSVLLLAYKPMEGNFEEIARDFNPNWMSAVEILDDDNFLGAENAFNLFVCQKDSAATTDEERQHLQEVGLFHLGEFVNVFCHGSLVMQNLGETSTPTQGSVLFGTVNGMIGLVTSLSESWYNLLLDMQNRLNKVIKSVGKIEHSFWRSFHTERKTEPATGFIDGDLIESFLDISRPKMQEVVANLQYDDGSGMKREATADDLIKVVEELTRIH
T2 sequence (Q07820 whole entry): as the sequence (Q07820 whole entry) above

`Cc1nn(C)c(C)c1-c1cccc2c(CCCOc3cccc4ccccc34)c(C(=O)O)n(CCN3CCN(C(=O)COc4cccc5c4C(=O)N(C4CCC(=O)NC4=O)C5=O)CC3)c12` (stereo not drawn) [Compound 241, 1-(2-(4-(2-((2-(2,6-dioxopiperidin-3-yl)-1,3-dioxoisoindolin-4-yl)oxy)acetyl)piperazin-1-yl)ethyl)-3-(3-(naphthalen-1-yloxy)propyl)-7-(1,3,5-trimethyl-1H-pyrazol-4-yl)-1H-indole-2-carboxylic acid]: the IC50 in the experiment with MV-4-11 cells is at most 1000 nM. For the same compound, in experiment [1], the EC50 was below 100 nM. In addition, the “Simple Western, % of protein reduction” value at MCL-1 protein [2] was at least 20%. Also, the “Western blot, % of protein reduction” value on MCL-1 protein [3] is on record as at least 50%.
Consider `Cc1cc(OCCCc2c(C(=O)O)n(CCN3CCN(C(=O)COc4cccc5c4C(=O)N(C4CCC(=O)NC4=O)C5=O)CC3)c3c(-c4c(C)nn(C)c4C)c(Cl)ccc23)cc(C)c1Cl` (stereo not drawn) [Compound 201, 6-chloro-3-(3-(4-chloro-3,5-dimethylphenoxy)propyl)-1-(2-(4-(2-((2-(2,6-dioxopiperidin-3-yl)-1,3-dioxoisoindolin-4-yl)oxy)acetyl)piperazin-1-yl)ethyl)-7-(1,3,5-trimethyl-1H-pyrazol-4-yl)-1H-indole-2-carboxylic acid], for which the values for the IC50 in the experiment with MV-4-11 cells and in the experiment on OPM-2 cells were at most 100 nM and at most 1000 nM, respectively. In experiment [1], the EC50 is below 100 nM. On MCL-1 protein [2], the “Simple Western, % of protein reduction” value is given as at least 20%. The “Western blot, % of protein reduction” value at MCL-1 protein [3] is at least 50%.
As for `Cc1nn(C)c(C)c1-c1c(Cl)ccc2c(CCCOc3cccc4c3CCCC4)c(C(=O)O)n(CCN3CCN(C(=O)COc4cccc5c4C(=O)N(C4CCC(=O)NC4=O)C5=O)CC3)c12` (stereo not drawn) [Compound 216, 6-chloro-1-{2-[4-(2-{[2-(2,6-dioxopiperidin-3-yl)-1,3-dioxo-2,3-dihydro-1H-isoindol-4-yl]oxy}acetyl)piperazin-1-yl]ethyl}-3-[3-(5,6,7,8-tetrahydronaphthalen-1-yloxy)propyl]-7-(1,3,5-trimethyl-1H-pyrazol-4-yl)-1H-indole-2-carboxylic acid], the IC50 was at most 3160 nM in the experiment on DMS 114 cells, at most 100 nM in the experiment with MV-4-11 cells, above 10000 nM in the experiment on ARH-77 cells and at most 100 nM with OPM-2 cells. The EC50 in experiment [4] and in experiment [1] was below 10 nM in each case.
Regarding `Cc1nc2c(C(=O)NC3CCC(=O)NC3=O)cc(OCC(=O)N3CCN(CCn4c(C(=O)O)c(CCCOc5cccc6ccccc56)c5ccc(Cl)c(-c6c(C)nn(C)c6C)c54)CC3)cc2[nH]1` (stereo not drawn) [Compound 263, 6-chloro-1-(2-{4-[2-({4-[(2,6-dioxopiperidin-3-yl)carbamoyl]-2-methyl-1H-1,3-benzodiazol-6-yl}oxy)acetyl]piperazin-1-yl}ethyl)-3-[3-(naphthalen-1-yloxy)propyl]-7-(1,3,5-trimethyl-1H-pyrazol-4-yl)-1H-indole-2-carboxylic acid], the IC50 with MV-4-11 cells is at most 316 nM; in the experiment on OPM-2 cells, at most 1000 nM. Further, the EC50 in experiment [1] is below 100 nM. Moreover, the “Simple Western, % of protein reduction” value on MCL-1 protein [2] is recorded as at least 40%. Also, on MCL-1 protein [3], the “Western blot, % of protein reduction” value is listed as at least 50%.
Take `Cc1nn(C)c(C)c1-c1c(Cl)ccc2c(CCCOc3cccc4ccccc34)c(C(=O)O)n(CCN3CCN(C(=O)COc4cccc5c4C(=O)N(C4CCC(=O)NC4=O)C5=O)CC34CC4)c12` (stereo not drawn) [Compound 210, 6-chloro-1-(2-(7-(2-((2-(2,6-dioxopiperidin-3-yl)-1,3-dioxoisoindolin-4-yl)oxy)acetyl)-4,7-diazaspiro[2.5]octan-4-yl)ethyl)-3-(3-(naphthalen-1-yloxy)propyl)-7-(1,3,5-trimethyl-1H-pyrazol-4-yl)-1H-indole-2-carboxylic acid]: the results for the IC50 in the experiment with MV-4-11 cells, in the experiment with ARH-77 cells and with OPM-2 cells were at most 100 nM, above 10000 nM and at most 1000 nM, respectively. Besides, in experiment [1], the EC50 was below 100 nM.
